Results taken from patent US12344597B2, “Alkoxy-substituted pyridinyl derivatives as LPA1 receptor antagonists and their use in the treatment of fibrosis” (IDORSIA PHARMACEUTICALS LTD, priority 2018, dated 2025).

Each compound was assayed against human LPA1 receptor (Homo sapiens (Human), UniProt Q92633) (assay: Beta-arrestin recruitment assay to determine IC50 values for human LPAR1). Details: antagonist mode, Tango EDG2-bla U2OS cells, LPA 18:1 500 nM final.
Type: cell-based
Summary of the method: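 Tango EDG2-bla U2OS cells: LPA-driven beta-arrestin/TEV protease recruitment releases Gal4-VP16, inducing beta-lactamase reporter read with live-cell substrate. Cells seeded 20 h at 37 °C beforehand. IC50 is antagonist concentration inhibiting 50% of maximal response.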

Sequence of human LPA1 receptor (Q92633 whole entry): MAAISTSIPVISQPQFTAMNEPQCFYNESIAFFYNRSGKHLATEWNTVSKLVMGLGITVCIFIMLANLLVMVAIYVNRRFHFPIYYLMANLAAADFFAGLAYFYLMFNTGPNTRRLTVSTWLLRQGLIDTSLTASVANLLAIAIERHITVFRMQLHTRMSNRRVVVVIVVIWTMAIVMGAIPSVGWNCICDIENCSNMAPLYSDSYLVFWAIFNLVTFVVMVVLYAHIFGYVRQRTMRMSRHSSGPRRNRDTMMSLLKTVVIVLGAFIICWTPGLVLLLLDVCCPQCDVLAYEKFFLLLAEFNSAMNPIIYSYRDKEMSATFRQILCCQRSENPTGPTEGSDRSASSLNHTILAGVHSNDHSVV

| Compound | IC50 [µM] |
| --- | --- |
| Cc1ccc(NC(=O)C2(c3ccccc3C(C)C)CN(S(=O)(=O)CC(=O)O)C2)c(OC(F)F)n1 [Ex 13-1, 2-((3-((2-(difluoromethoxy)-6-methylpyridin-3-yl)carbamoyl)-3-(2-isopropylphenyl)azetidin-1-yl)sulfonyl)acetic acid] | 0.007 |
| COC(=O)C(C)(C)CCNC(=O)N1CC(C(=O)Nc2ccc(C)nc2OC(F)F)(c2ccccc2C(C)C)C1 [Ex 17-18, methyl 4-(3-((2-(difluoromethoxy)-6-methylpyridin-3-yl)carbamoyl)-3-(2-isopropylphenyl)azetidine-1-carboxamido)-2,2-dimethylbutanoate] | 0.006 |
| Cc1ccc(NC(=O)C2(c3ccccc3C(C)C)CN(C(=O)N3CCN(C)CC3)C2)c(OC(F)F)n1 [Ex 17-26, N-(2-(difluoromethoxy)-6-methylpyridin-3-yl)-3-(2-isopropylphenyl)-1-(4-methylpiperazine-1-carbonyl)azetidine-3-carboxamide] | 0.24 |
| COC(=O)CC1(CN2CC(C(=O)Nc3ccc(C)nc3OC(F)F)(c3ccccc3C(C)C)C2)CC1 [Ex 11-67, Methyl 2-(1-((3-((2-(difluoromethoxy)-6-methylpyridin-3-yl)carbamoyl)-3-(2-isopropylphenyl)azetidin-1-yl)methyl)cyclopropyl)acetate] | 0.326 |
| CC(C)c1ccccc1C1(C(=O)Nc2cccnc2OC(F)F)CN(c2ccc(C#N)cn2)C1 [Ex 18-23, 1-(5-cyanopyridin-2-yl)-N-(2-(difluoromethoxy)pyridin-3-yl)-3-(2-isopropylphenyl)azetidine-3-carboxamide] | 0.004 |
| Cc1ccc(NC(=O)C2(c3ccccc3C(C)C)CN(Cc3ccc(C(=O)O)nc3)C2)c(OC(F)F)n1 [Ex 11-53, 5-((3-((2-(difluoromethoxy)-6-methylpyridin-3-yl)carbamoyl)-3-(2-isopropylphenyl)azetidin-1-yl)methyl)picolinic acid] | 0.115 |
| Cc1ccc(NC(=O)C2(c3ccccc3C(C)C)CN(C(=O)OCC3(C(=O)O)CC3)C2)c(OC(F)F)n1 [Ex 14-12, 1-(((3-((2-(difluoromethoxy)-6-methylpyridin-3-yl)carbamoyl)-3-(2-isopropylphenyl)azetidine-1-carbonyl)oxy)methyl)cyclopropane-1-carboxylic acid] | 0.005 |
| 1-((3-((3-(difluoromethoxy)-5-methylpyridin-2-yl)carbamoyl)-3-(2-isopropylphenyl)azetidine-1-carbonyl)oxy)cyclopropane-1-carboxylic acid [Ex 83-3] | 0.076 |
| COCCN(CC(=O)O)CC(=O)N1CC(C(=O)Nc2ccc(C)nc2OC(F)F)(c2ccccc2C(C)C)C1 [Ex 55] | 0.044 |
| Cc1ccc(NC(=O)C2(c3ccccc3C(C)C)CN(CC3CCC(C(=O)O)CC3)C2)c(OC(F)F)n1 (stereo not shown) [Ex 41, 4-((3-((2-(difluoromethoxy)-6-methylpyridin-3-yl)carbamoyl)-3-(2-isopropylphenyl)azetidin-1-yl)methyl)cyclohexane-1-carboxylic acid] | 0.096 |
| Cc1ccc(NC(=O)C2(c3ccccc3C(C)C)CN(C(=O)[C@H]3CC[C@@H](C(=O)O)CC3)C2)c(OC(F)F)n1 [Ex 50, (1s,4s)-4-(3-((2-(difluoromethoxy)-6-methylpyridin-3-yl)carbamoyl)-3-(2-isopropylphenyl)azetidine-1-carbonyl)cyclohexane-1-carboxylic acid] | 0.068 |
| Cc1ccc(NC(=O)C2(c3ccccc3C(C)C)CN(CCNC(=O)CO)C2)c(OC(F)F)n1 [Ex 11-87, N-(2-(difluoromethoxy)-6-methylpyridin-3-yl)-1-(2-(2-hydroxyacetamido)ethyl)-3-(2-isopropylphenyl)azetidine-3-carboxamide] | 0.026 |
| Cc1ccc(NC(=O)C2(c3ccccc3C(C)C)CN(Cc3ccnn3C)C2)c(OC(F)F)n1 [Ex 11-22, N-(2-(difluoromethoxy)-6-methylpyridin-3-yl)-3-(2-isopropylphenyl)-1-((1-methyl-1H-pyrazol-5-yl)methyl)azetidine-3-carboxamide] | 0.108 |
| COC(=O)C(C)(C)CC(=O)N1CC(C(=O)Nc2ccc(OC)nc2OC)(c2ccccc2C(C)C)C1 [Ex 12-85, methyl 4-(3-((2,6-dimethoxypyridin-3-yl)carbamoyl)-3-(2-isopropylphenyl)azetidin-1-yl)-2,2-dimethyl-4-oxobutanoate] | 0.14 |
| COC(=O)C1(COC(=O)N2CC(C(=O)Nc3ccc(C)nc3OC(F)F)(c3ccccc3C(C)C)C2)CC1 [Ex 14-11, (1-(methoxycarbonyl)cyclopropyl)methyl 3-((2-(difluoromethoxy)-6-methylpyridin-3-yl)carbamoyl)-3-(2-isopropylphenyl)azetidine-1-carboxylate] | 0.127 |
| Cc1ccc(NC(=O)C2(c3ccccc3C(C)C)CN(C(=O)CN3CC(=O)NC3=O)C2)c(OC(F)F)n1 [Ex 12-126, N-(2-(difluoromethoxy)-6-methylpyridin-3-yl)-1-(2-(2,4-dioxoimidazolidin-1-yl)acetyl)-3-(2-isopropylphenyl)azetidine-3-carboxamide] | 0.046 |

| Compound | IC50 [µM] |
| --- | --- |
| Cc1ccc(NC(=O)C2(c3ccccc3C(C)C)CCN(C(=O)Cc3c[nH]nc3O)CC2)c(OC(F)F)n1 [Ex 12-27, N-(2-(difluoromethoxy)-6-methylpyridin-3-yl)-1-(2-(3-hydroxy-1H-pyrazol-4-yl)acetyl)-4-(2-isopropylphenyl)piperidine-4-carboxamide] | 0.004 |
| CCOC(=O)c1nccc(N2CC(C(=O)Nc3ccc(C)nc3OC(F)F)(c3ccccc3C(C)C)C2)n1 [Ex 18-10, ethyl 4-(3-((2-(difluoromethoxy)-6-methylpyridin-3-yl)carbamoyl)-3-(2-isopropylphenyl)azetidin-1-yl)pyrimidine-2-carboxylate] | 0.12 |
| COC(=O)C(C)(C)CC(=O)N1CC(C(=O)Nc2ccc(C)nc2OC(F)F)(c2ccccc2C(C)C)C1 [Ex 12-81, methyl 4-(3-((2-(difluoromethoxy)-6-methylpyridin-3-yl)carbamoyl)-3-(2-isopropylphenyl)azetidin-1-yl)-2,2-dimethyl-4-oxobutanoate] | 0.034 |
| Cc1ccc(NC(=O)C2(c3ccccc3C(C)C)CN(c3nc(C(=O)O)co3)C2)c(OC(F)F)n1 [Ex 18-28, 2-(3-((2-(difluoromethoxy)-6-methylpyridin-3-yl)carbamoyl)-3-(2-isopropylphenyl)azetidin-1-yl)oxazole-4-carboxylic acid] | 0.006 |
| COC(=O)c1ccc(CN2CC(C(=O)Nc3ccc(C)nc3OC(F)F)(c3ccccc3C(C)C)C2)cn1 [Ex 11-52, methyl 5-((3-((2-(difluoromethoxy)-6-methylpyridin-3-yl)carbamoyl)-3-(2-isopropylphenyl)azetidin-1-yl)methyl)picolinate] | 0.079 |
| Cc1ccc(NC(=O)C2(c3ccccc3C(C)C)CN(CCC3(C(=O)O)CCC3)C2)c(OC(F)F)n1 [Ex 11-73, 1-(2-(3-((2-(difluoromethoxy)-6-methylpyridin-3-yl)carbamoyl)-3-(2-isopropylphenyl)azetidin-1-yl)ethyl)cyclobutane-1-carboxylic acid] | 0.046 |
| CC(=O)NS(=O)(=O)N1CC(C(=O)Nc2ccc(C)nc2OC(F)F)(c2ccccc2C(C)C)C1 [Ex 16-1, 1-(N-acetylsulfamoyl)-N-(2-(difluoromethoxy)-6-methylpyridin-3-yl)-3-(2-isopropylphenyl)azetidine-3-carboxamide] | 0.069 |
| COCCN(CC(=O)N1CCC(C(=O)Nc2ccc(C)nc2OC(F)F)(c2ccccc2C(C)C)CC1)C(=O)OC(C)(C)C [Ex 12-47, tert-butyl (2-(4-((2-(difluoromethoxy)-6-methylpyridin-3-yl)carbamoyl)-4-(2-isopropylphenyl)piperidin-1-yl)-2-oxoethyl)(2-methoxyethyl)carbamate] | 0.059 |
| COc1cc(Br)cnc1NC(=O)C1(c2ccccc2C(C)C)CN(C(=O)CC(C)(C)C(=O)O)C1 [Ex 79-5, 4-(3-((5-bromo-3-methoxypyridin-2-yl)carbamoyl)-3-(2-isopropylphenyl)azetidin-1-yl)-2,2-dimethyl-4-oxobutanoic acid] | 0.104 |
| CC(C)c1ccccc1C1(C(=O)Nc2ncc(Br)cc2OC(F)F)CN(C(=O)NC2CC2)C1 [Ex 82-2, N3-(5-bromo-3-(difluoromethoxy)pyridin-2-yl)-N1-cyclopropyl-3-(2-isopropylphenyl)azetidine-1,3-dicarboxamide] | 0.003 |
| Cc1ccc(NC(=O)C2(c3ccccc3C(C)C)CN(C(=O)Cn3cnnc3)C2)c(OC(F)F)n1 [Ex 12-23, 1-(2-(4H-1,2,4-triazol-4-yl)acetyl)-N-(2-(difluoromethoxy)-6-methylpyridin-3-yl)-3-(2-isopropylphenyl)azetidine-3-carboxamide] | 0.021 |
| (R)-2-amino-5-(3-((2-(difluoromethoxy)-6-methylpyridin-3-yl)carbamoyl)-3-(2-isopropylphenyl)azetidin-1-yl)-5-oxopentanoic acid [Ex 49] | 0.044 |
| Cc1ccc(NC(=O)C2(c3ccccc3C(C)C)CN(C(=O)COCCOCC(=O)OCc3ccccc3)C2)c(OC(F)F)n1 [Ex 12-106, benzyl 2-(2-(2-(3-((2-(difluoromethoxy)-6-methylpyridin-3-yl)carbamoyl)-3-(2-isopropylphenyl)azetidin-1-yl)-2-oxoethoxy)ethoxy)acetate] | 0.059 |
| CC(C)c1ccccc1C1(C(=O)Nc2cccnc2OC(F)F)CN(S(=O)(=O)CCC(=O)O)C1 [Ex 13-10, 3-((3-((2-(difluoromethoxy)pyridin-3-yl)carbamoyl)-3-(2-isopropylphenyl)azetidin-1-yl)sulfonyl)propanoic acid] | 0.02 |
| Cc1ccc(NC(=O)C2(c3ccccc3C(C)C)CN(c3cnc(C(=O)O)cn3)C2)c(OC(F)F)n1 [Ex 18-9, 5-(3-((2-(difluoromethoxy)-6-methylpyridin-3-yl)carbamoyl)-3-(2-isopropylphenyl)azetidin-1-yl)pyrazine-2-carboxylic acid] | 0.011 |
